Results: patent US12403132B2, “Methods of treating bone marrow failure syndromes and compositions for use in the same” (The Board of Trustees of the Leland Stanford Junior …, priority 2020, dated 2025)

Test system: CD235+ erythroblasts
Assay: CD235+ erythroid expansion of differentiating human cord blood CD34+ progenitors (shRPS19/shRPL11 DBA models), flow cytometry
Format: cell-based
Conditions: TGFβ-treated control and RPS19-insufficiency, 5 μM

Cc1cccc(-c2[nH]c(C(C)(C)C)nc2-c2ccc3c(c2)OCO3)n1 [SB505124]
erythroid and myeloid expansion restored, % of cultures not treated with TGFβ: at least 95%
